# From US9695171B2, “3,4-disubstituted-1 H-pyrrolo[2,3-b]pyridines and 4,5-disubstituted-7H-pyrrolo[2,3-c]pyridazines as LRRK2 inhibitors” (Pfizer Inc., priority 2013, dated 2017)
# Target: T1, GST-tagged truncated LRRK2 (Homo sapiens, UniProt Q5S007)
# T1 construct: GST-tagged truncated LRRK2 from Invitrogen (Cat # PV4874); GST; purchased Invitrogen PV4874
# Assay: LRRK2 kinase assay (Lantha Screen)
# Format: biochemical
# Conditions: 1 mM ATP (head); a = geometric mean of >=4 determinations, b = single determination; read-out: LRRK2 LANTHA EC50 at 1 mM ATP; Geometric mean of 2-3 determinations unless otherwise indicated
# Method: LRRK2 kinase activity was measured using Lantha Screen technology from Invitrogen. GST-tagged truncated LRRK2 from Invitrogen (Cat # PV4874) was incubated with a fluorescein-labeled peptide substrate based upon ezrin/radixin/moesin (ERM), also known as LRRKtide (Invitrogen cat # PR8976A), in the presence of a dose response of compound. Upon completion, the assay was stopped and detected with a terbium labeled anti-phospho-ERM antibody (Invitrogen, cat # PR8975A). […] The compound dose response was prepared by diluting compound to a top concentration of 3.16 mM in 100% DMSO and serial diluted by half-log in DMSO 11 times. Aliquots (3.5 μL) of the 100% DMSO dose response were mixed with 46.5 μL water then 1 μL of this mixture was added to the 3 μL substrate mix in the 384-well plate. The kinase reaction was started with 3 μL of a working solution of LRRK2 enzyme at a concentration of 4 μg/mL. […] The reaction was allowed to progress at room temperature for two hours and then stopped with the addition of 7 μL of detection buffer (20 mM Tris pH 7.6, 0.01% NP-40, 0.02% NaN3, 6 mM EDTA with 2 nM terbium labeled anti-phospho-ERM). After an incubation of 1 hour at room temperature, the plate was read on an Envision with an excitation wavelength of 340 nm and a reading emission at both 520 nm and 495 nm. The ratio of the 520 nm and 495 nm emission was used to analyze the data.
# T1 sequence (Q5S007 970-2527 limits assumed): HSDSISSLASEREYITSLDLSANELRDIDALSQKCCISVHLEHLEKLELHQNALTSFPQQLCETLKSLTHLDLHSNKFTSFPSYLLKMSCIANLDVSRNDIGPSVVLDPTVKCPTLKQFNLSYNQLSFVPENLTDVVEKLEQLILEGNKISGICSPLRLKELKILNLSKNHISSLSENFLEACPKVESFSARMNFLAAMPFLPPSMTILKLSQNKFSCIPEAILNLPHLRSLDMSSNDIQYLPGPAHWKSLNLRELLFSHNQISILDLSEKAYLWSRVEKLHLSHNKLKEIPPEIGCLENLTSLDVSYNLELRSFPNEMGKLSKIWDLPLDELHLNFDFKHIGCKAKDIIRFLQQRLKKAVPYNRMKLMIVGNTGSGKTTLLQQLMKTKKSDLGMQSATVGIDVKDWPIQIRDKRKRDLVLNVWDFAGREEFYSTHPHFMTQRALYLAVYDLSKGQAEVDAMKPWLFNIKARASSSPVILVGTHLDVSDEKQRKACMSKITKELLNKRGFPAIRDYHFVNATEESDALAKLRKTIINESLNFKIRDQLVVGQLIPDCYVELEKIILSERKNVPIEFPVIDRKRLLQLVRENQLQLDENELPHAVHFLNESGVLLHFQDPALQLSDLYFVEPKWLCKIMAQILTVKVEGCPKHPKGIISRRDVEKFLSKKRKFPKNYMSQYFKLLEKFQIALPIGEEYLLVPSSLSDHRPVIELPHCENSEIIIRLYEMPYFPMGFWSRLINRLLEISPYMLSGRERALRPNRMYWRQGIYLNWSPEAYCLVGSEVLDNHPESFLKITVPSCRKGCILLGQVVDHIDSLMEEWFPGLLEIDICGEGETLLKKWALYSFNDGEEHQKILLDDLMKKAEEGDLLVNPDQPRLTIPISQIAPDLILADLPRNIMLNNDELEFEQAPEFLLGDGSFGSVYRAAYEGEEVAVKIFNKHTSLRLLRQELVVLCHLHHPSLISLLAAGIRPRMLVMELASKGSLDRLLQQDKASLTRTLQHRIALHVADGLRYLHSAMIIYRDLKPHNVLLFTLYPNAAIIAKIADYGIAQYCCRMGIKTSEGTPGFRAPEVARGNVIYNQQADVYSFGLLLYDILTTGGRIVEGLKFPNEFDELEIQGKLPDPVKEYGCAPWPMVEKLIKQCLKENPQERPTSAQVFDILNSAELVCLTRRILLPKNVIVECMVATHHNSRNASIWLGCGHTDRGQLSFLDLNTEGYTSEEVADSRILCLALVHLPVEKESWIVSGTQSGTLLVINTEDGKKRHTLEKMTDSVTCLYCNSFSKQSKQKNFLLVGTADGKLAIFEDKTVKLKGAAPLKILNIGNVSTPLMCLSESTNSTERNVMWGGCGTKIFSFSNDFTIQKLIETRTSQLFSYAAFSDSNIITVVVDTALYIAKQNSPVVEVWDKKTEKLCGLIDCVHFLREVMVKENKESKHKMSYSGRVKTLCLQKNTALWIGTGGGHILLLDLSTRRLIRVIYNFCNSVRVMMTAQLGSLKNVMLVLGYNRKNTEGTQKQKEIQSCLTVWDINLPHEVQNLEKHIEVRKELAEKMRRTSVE
row,Structure (SMILES),EC50 [nM]
1,"Fc1cc(F)cc(-c2c[nH]c3nccc(N4CCOCC4)c23)c1 [Example 34, 3-(3,5-difluorophenyl)-4-(morpholin-4-yl)-1H-pyrrolo[2,3-b]pyridine]",43.3
2,"Clc1ncccc1-c1c[nH]c2nccc(N3CCOCC3)c12 [Example 35, 3-(2-chloropyridin-3-yl)-4-(morpholin-4-yl)-1H-pyrrolo[2,3-b]pyridine]",110
3,"c1ccc(-c2c[nH]c3nccc(N4CCOCC4)c23)cc1 [Example 36, 4-(morpholin-4-yl)-3-phenyl-1H-pyrrolo[2,3-b]pyridine]",49.7
4,"Fc1ccc(-c2c[nH]c3nccc(N4CCOCC4)c23)c(F)c1 [Example 37, 3-(2,4-difluorophenyl)-4-(morpholin-4-yl)-1H-pyrrolo[2,3-b]pyridine]",147
5,"Cc1cc(F)cc(-c2c[nH]c3nccc(N4CCOCC4)c23)c1 [Example 38, 3-(3-fluoro-5-methylphenyl)-4-(morpholin-4-yl)-1H-pyrrolo[2,3-b]pyridine]",22.9
6,"N#Cc1cc(F)cc(-c2c[nH]c3nccc(N4CCOCC4)c23)c1 [Example 39, 3-fluoro-5-[4-(morpholin-4-yl)-1H-pyrrolo[2,3-b]pyridin-3-yl]benzonitrile]",140
7,"COc1ccc(F)c(F)c1-c1c[nH]c2nccc(N3CCOCC3)c12 [Example 40, 3-(2,3-difluoro-6-methoxyphenyl)-4-(morpholin-4-yl)-1H-pyrrolo[2,3-b]pyridine]",105
8,"N#Cc1cc(-c2c[nH]c3nccc(N4CCOCC4)c23)ccc1F [Example 41, 2-fluoro-5-[4-(morpholin-4-yl)-1H-pyrrolo[2,3-b]pyridin-3-yl]benzonitrile]",226
9,"COc1cncc(-c2c[nH]c3nccc(N4CCOCC4)c23)c1 [Example 42, 3-(5-methoxypyridin-3-yl)-4-(morpholin-4-yl)-1H-pyrrolo[2,3-b]pyridine]",240
10,"Cc1[nH]c2nccc(N3CCOCC3)c2c1-c1cccc(C#N)n1 [Example 43, 6-[2-methyl-4-(morpholin-4-yl)-1H-pyrrolo[2,3-b]pyridin-3-yl]pyridine-2-carbonitrile]",31.9
11,"Cn1cc(-c2c[nH]c3ncc(C#N)c(N4CCOCC4)c23)cn1 [Example 44, 3-(1-methyl-1H-pyrazol-4-yl)-4-(morpholin-4-yl)-1H-pyrrolo[2,3-b]pyridine-5-carbonitrile]",143
12,"N#Cc1cccc(-c2c[nH]c3ncc(C#N)c(N4CCOCC4)c23)c1F [Example 45, 3-(3-cyano-2-fluorophenyl)-4-(morpholin-4-yl)-1H-pyrrolo[2,3-b]pyridine-5-carbonitrile]",20.4
13,"Cc1cc(F)cc(-c2c[nH]c3ncc(C#N)c(N4CCOCC4)c23)c1 [Example 46, 3-(3-fluoro-5-methylphenyl)-4-(morpholin-4-yl)-1H-pyrrolo[2,3-b]pyridine-5-carbonitrile]",29.6
14,"N#Cc1ccc(F)c(-c2c[nH]c3nccc(N4CCOCC4)c23)c1 [Example 47, 4-fluoro-3-[4-(morpholin-4-yl)-1H-pyrrolo[2,3-b]pyridin-3-yl]benzonitrile]",144
15,"N#Cc1ccc(-c2c[nH]c3nccc(N4CCOCC4)c23)c(F)c1 [Example 48, 3-fluoro-4-[4-(morpholin-4-yl)-1H-pyrrolo[2,3-b]pyridin-3-yl]benzonitrile]",217
16,"N#Cc1cc(CO)cc(-c2c[nH]c3nccc(N4CCOCC4)c23)c1 [Example 49, 3-(hydroxymethyl)-5-[4-(morpholin-4-yl)-1H-pyrrolo[2,3-b]pyridin-3-yl]benzonitrile]",50.8
17,"Fc1ccc(-c2c[nH]c3nccc(N4CCOCC4)c23)cc1 [Example 50, 3-(4-fluorophenyl)-4-(morpholin-4-yl)-1H-pyrrolo[2,3-b]pyridine]",191
18,"Cc1cncc(-c2c(C)[nH]c3nccc(N4CCOCC4)c23)c1 [Example 51, 2-methyl-3-(5-methylpyridin-3-yl)-4-(morpholin-4-yl)-1H-pyrrolo[2,3-b]pyridine]",191
